This is an account of results in patent publication US6518268B1, “Telomerase inhibitors and methods of their use” (Geron Corporation, priority 1999, dated 2003).

Assay [1] concerns the target T1, telomerase in human renal carcinoma cell line ACHN (Homo sapiens, UniProt O14746).
T1 construct: human renal carcinoma cell line ACHN for 3 days, and then a cell extract was prepared; endogenous in cells; host or cells: ACHN human renal carcinoma cells; CHAPS extract after 3 days of treatment
As to the kind of experiment: Telomerase activity in extract of agent-treated ACHN cells (TRAP assay). It counts as cell-based. The settings on record: contact 3 days. The protocol:
That is, a cell extract was prepared using a buffer solution containing 0.5% CHAPS. Using the extract, TRAP (Telomeric Repeat Amplification Protocol) assay was carried out in vitro (TRAPEZE™ ELISA Telomerase Detection Kit, manufactured by Intergen). The ratio (%) of the enzyme activity in the extract from agent-treated cells to the enzyme activity in the extract from agent-untreated cells was calculated.

Assay [2] addresses T2, partially purified telomerase from a nuclear extract of HEK293 cells (Homo sapiens, UniProt O14746).
T2 construct: partially purified telomerase from a nuclear extract of HEK293 cells; endogenous in cells; host or cells: HEK293 cells, nuclear extract, partially purified
The assay can be described thus: In vitro telomerase inhibition, membrane hybridization method (U.S. Pat. No. 5,760,062). The format is biochemical. The settings on record: for IC50: partially purified telomerase from nuclear extract of HEK293 cells; for residual activity of in vitro telomerase activity (in parenthesis): in the presence of the compound at a concentration of 10 μm. As to the method: Alternatively, telomerase inhibitory activity of the compounds was measured in accordance with a known method (U.S. Pat. No. 5,760,062). That is, a dimethyl sulfoxide (DMSO) solution of each agent was mixed with partially purified telomerase from a nuclear extract of HEK293 cells and incubated in the presence of an oligodeoxynucleotide to be used as the substrate and deoxynucleotide triphosphate. The obtained reacted product (DNA having a telomere sequence) was adsorbed on a membrane, and hybridization was carried out using a labeled oligonucleotide probe having a sequence complementary to the telomere sequence. The inhibition ratio was calculated based on the ratio of the signal of label on the membrane in the presence of the agent to the signal of label in the absence of the agent (control). Also, concentration of each agent which inhibits 50% of the enzyme activity based on the control was used as IC50.

[3] abbreviates: concentration 30 μM, read-out: Residual Enzyme Activity (%).
[4] abbreviates: concentration 10 μM, read-out: Residual Enzyme Activity (%).

T1 sequence (O14746 whole entry): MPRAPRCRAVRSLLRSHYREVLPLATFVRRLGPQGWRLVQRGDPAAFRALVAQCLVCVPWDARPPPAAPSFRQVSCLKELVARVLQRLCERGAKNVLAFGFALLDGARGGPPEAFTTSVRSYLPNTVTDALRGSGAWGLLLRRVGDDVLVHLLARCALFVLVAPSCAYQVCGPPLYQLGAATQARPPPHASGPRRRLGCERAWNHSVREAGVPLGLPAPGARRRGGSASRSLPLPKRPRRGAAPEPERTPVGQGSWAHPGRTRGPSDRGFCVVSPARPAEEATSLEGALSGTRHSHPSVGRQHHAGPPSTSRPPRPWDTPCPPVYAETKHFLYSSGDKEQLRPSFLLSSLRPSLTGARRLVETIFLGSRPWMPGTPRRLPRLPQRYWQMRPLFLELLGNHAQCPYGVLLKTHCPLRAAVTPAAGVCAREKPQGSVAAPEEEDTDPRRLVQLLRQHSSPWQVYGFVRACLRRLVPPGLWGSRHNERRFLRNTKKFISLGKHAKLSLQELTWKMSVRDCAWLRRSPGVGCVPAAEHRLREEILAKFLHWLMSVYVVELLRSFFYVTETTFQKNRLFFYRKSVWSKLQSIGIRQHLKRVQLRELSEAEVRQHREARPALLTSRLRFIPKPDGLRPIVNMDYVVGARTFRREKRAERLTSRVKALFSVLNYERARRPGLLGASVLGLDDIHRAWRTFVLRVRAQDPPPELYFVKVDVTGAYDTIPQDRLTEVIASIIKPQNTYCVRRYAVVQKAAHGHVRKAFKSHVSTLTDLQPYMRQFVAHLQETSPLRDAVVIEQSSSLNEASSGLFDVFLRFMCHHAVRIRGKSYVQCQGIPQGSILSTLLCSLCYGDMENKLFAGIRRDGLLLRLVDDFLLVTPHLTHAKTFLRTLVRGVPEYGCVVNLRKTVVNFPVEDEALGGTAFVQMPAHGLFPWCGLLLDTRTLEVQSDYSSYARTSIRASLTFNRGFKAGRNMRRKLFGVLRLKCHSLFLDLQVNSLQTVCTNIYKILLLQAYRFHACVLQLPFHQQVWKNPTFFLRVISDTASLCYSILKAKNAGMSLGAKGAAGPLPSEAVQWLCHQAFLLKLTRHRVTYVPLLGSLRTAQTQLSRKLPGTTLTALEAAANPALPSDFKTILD
T1 sequence (O60832 whole entry partner): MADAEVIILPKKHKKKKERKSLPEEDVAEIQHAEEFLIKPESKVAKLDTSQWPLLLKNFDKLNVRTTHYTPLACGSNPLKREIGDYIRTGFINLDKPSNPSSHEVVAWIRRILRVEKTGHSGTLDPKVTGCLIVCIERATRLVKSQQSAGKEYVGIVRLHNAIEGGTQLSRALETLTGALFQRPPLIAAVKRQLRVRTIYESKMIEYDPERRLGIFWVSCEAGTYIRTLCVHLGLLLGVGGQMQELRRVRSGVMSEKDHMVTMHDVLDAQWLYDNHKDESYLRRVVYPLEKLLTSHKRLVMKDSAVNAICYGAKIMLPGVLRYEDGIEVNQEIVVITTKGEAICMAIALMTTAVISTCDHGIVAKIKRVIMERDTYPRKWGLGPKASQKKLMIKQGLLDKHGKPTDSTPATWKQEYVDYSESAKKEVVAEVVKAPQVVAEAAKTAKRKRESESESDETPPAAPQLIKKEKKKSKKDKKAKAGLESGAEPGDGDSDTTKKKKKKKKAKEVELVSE
T1 sequence (Q9NPE3 whole entry partner): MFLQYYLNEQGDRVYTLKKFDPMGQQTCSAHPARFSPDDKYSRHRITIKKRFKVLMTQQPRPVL
T1 sequence (Q9NX24 whole entry partner): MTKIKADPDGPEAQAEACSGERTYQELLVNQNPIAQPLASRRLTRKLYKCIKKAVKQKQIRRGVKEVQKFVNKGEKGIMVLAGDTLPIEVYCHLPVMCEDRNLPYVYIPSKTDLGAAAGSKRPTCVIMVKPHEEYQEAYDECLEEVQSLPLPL
T1 sequence (Q9NY12 whole entry partner): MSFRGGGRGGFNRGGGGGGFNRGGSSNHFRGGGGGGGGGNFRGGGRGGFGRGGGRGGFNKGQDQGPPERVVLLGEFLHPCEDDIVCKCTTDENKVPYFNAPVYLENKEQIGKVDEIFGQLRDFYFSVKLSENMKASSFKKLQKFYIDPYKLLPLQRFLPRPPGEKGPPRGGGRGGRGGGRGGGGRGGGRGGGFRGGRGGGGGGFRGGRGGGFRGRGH
T2 sequence (O14746 whole entry): as the sequence (O14746 whole entry) above
T2 sequence (O60832 whole entry partner): as the sequence (O60832 whole entry partner) above
T2 sequence (Q9NPE3 whole entry partner): as the sequence (Q9NPE3 whole entry partner) above
T2 sequence (Q9NX24 whole entry partner): as the sequence (Q9NX24 whole entry partner) above
T2 sequence (Q9NY12 whole entry partner): as the sequence (Q9NY12 whole entry partner) above

Turning to `Cc1ccc(Sc2ccc([N+](=O)[O-])cc2C=C2SC(=O)NC2=O)cc1` [Compound 1], the “Residual Enzyme Activity (%)” value in assay [1] (concentration 30 μM) is reported as 11%. This compound also came in with an IC50 in assay [2] of 21 µM.

Take `CC(=O)Nc1ccc(Sc2ccc(C)cc2)c(C=C2SC(=O)NC2=O)c1` [Compound 3]: the “Residual Enzyme Activity (%)” value in assay [1] (concentration 100 μM) is recorded as 0%.

Turning to `Cc1ccc([S+]([O-])c2ccc([N+](=O)[O-])cc2C=C2SC(=O)NC2=O)cc1` (stereo not drawn) [Compound 4], the “Residual Enzyme Activity (%)” value in assay [1] (concentration 10 μM) came to 16%. In assay [2], this compound yielded a half-inhibitory concentration (IC50) of 30 µM.

In the case of `Cc1ccc(S(=O)(=O)c2ccc([N+](=O)[O-])cc2C=C2SC(=O)NC2=O)cc1` [Compound 5], the “Residual Enzyme Activity (%)” value in assay [1] (concentration 10 μM) amounted to 16%. Further, in assay [2], the IC50 is 23 µM.

`O=C1NC(=O)C(=Cc2cccc(Oc3ccccc3)c2)S1` [Compound 11]: the “Residual Enzyme Activity (%)” value in assay [1] (concentration 100 μM) is 50%.

With `Cc1ccc(Oc2cccc(C=C3SC(=O)NC3=O)c2)cc1` [Compound 12], in assay [1] (concentration 100 μM), the “Residual Enzyme Activity (%)” value is 26%. For the same compound, half-maximal inhibition in assay [2] (IC50) was put at 5.8 µM.

`O=C1NC(=O)C(=Cc2ccc(Oc3ccccc3)cc2)S1` [Compound 14]: in assay [1] (concentration 100 μM), the “Residual Enzyme Activity (%)” value amounted to 47%. This compound displayed an IC50 in assay [2] of 4 µM.

For `O=C1NC(=O)C(=Cc2cc([N+](=O)[O-])ccc2OCc2ccccc2)S1` [Compound 16], in assay [1] (concentration 100 μM), the “Residual Enzyme Activity (%)” value was determined as 0%. For the same compound, the IC50 in assay [2] came to 26 µM.

On to `Cc1ccc(COc2ccc([N+](=O)[O-])c(C=C3SC(=O)NC3=O)c2)cc1` [Compound 21], for which the “Residual Enzyme Activity (%)” value in assay [1] (concentration 30 μM) came out at 35%. In assay [2], this compound gave an IC50 of 4.3 µM.

Turning to `Cc1ccc(COc2ccccc2C=C2SC(=O)NC2=O)cc1` [Compound 22], the “Residual Enzyme Activity (%)” value in assay [1] (concentration 100 μM) is 33%.

With `O=C1NC(=S)SC1=Cc1cc([N+](=O)[O-])ccc1Sc1ccc(Cl)cc1` [Compound 37], the “Residual Enzyme Activity (%)” value in assay [1] (concentration 30 μM) turned out to be 39%. For the same compound, the IC50 in assay [2] came to 6 µM.

On to `Cc1ccc(Sc2ccc([N+](=O)[O-])cc2C=C2SC(=S)NC2=O)cc1` [Compound 38], for which, in assay [1] (concentration 30 μM), the “Residual Enzyme Activity (%)” value was 36%.

As to `CCN(CC)C(=O)c1cc(C=C2SC(=O)NC2=O)c(Sc2ccc(Cl)cc2)s1` [Compound 54], in assay [1] (setting [3]), the remaining activity at 30 µM was 50%. In addition, the IC50 in assay [2] is 7.4 µM.

For the compound `CN1CCN(C(=O)c2cc(C=C3SC(=O)NC3=O)c(Sc3ccc(Cl)cc3)s2)CC1` [Compound 56], the remaining activity at 30 µM in assay [1] (setting [3]) was 26%. This compound also yielded an IC50 in assay [2] of 7.9 µM.

`O=C1NC(=O)C(=Cc2cc(C(=O)N3CCOCC3)sc2Sc2ccc(Cl)cc2)S1` [Compound 57]: the remaining activity at 30 µM in assay [1] (setting [3]) came out at 24%. This compound showed an IC50 in assay [2] of 54 µM.

Consider `O=C1NC(=O)C(=Cc2cc(C(=O)c3ccc(Cl)cc3)c(S(=O)(=O)c3ccc(Cl)cc3)s2)S1` [Compound 66], for which the “Residual Enzyme Activity (%)” value in assay [1] (concentration 30 μM) is given as 0%. The same compound gave an IC50 in assay [2] of 3.7 µM.

`O=C1NC(=O)/C(=C/c2cc([N+](=O)[O-])ccc2[S+]([O-])c2ccc(Cl)cc2)S1` (stereo not drawn) [Compound 68]: the remaining activity at 10 µM in assay [1] (setting [4]) was 18%. Besides, half-maximal inhibition in assay [2] (IC50) was put at 2.7 µM.

With `O=C1NC(=O)C(=Cc2cc([N+](=O)[O-])ccc2S(=O)(=O)c2ccc(Cl)cc2)S1` [Compound 69], the remaining activity at 10 µM in assay [1] (setting [4]) is 16%. In assay [2], this compound gave an IC50 of 0.48 µM.

As to `O=C1NC(=O)C(=Cc2cc([N+](=O)[O-])ccc2S(=O)(=O)Cc2ccccc2)S1` [Compound 78], the remaining activity at 10 µM in assay [1] (setting [4]) turned out to be 25%. Moreover, the IC50 in assay [2] was 5.5 µM.

On to `Cc1ccc([S+]([O-])c2ccc(C=C3SC(=O)NC3=O)cc2[N+](=O)[O-])cc1` (stereo not drawn) [Compound 82], for which, in assay [1] (concentration 3 μM), the “Residual Enzyme Activity (%)” value turned out to be 23%. For the same compound, the “residual activity of in vitro telomerase activity (in parenthesis)” value (shortened to “residual activity”) in assay [2] was “(51%)”.

As to `Cc1ccc(S(=O)(=O)c2ccc(C=C3SC(=O)NC3=O)cc2[N+](=O)[O-])cc1` [Compound 83], in assay [1] (concentration 10 μM), the “Residual Enzyme Activity (%)” value was found to be 32%. Besides, in assay [2], the “residual activity” value is “(58%)”.

With `O=C1NC(=O)C(=Cc2cc([N+](=O)[O-])ccc2S(=O)(=O)C2CCCCC2)S1` [Compound 86], the remaining activity at 10 µM in assay [1] (setting [4]) was 44%. It took 8 µM to reach half-maximal inhibition in assay [2] (IC50).

On to `Cc1ccc(Sc2ccc(-c3ccccn3)cc2C=C2SC(=O)NC2=O)cc1` [Compound 89], for which the “Residual Enzyme Activity (%)” value in assay [1] (concentration 30 μM) is 2%. Also, the “residual activity” value in assay [2] was “(56%)”.

For the compound `Cc1ccc(Sc2ccc(-c3cccs3)cc2C=C2SC(=O)NC2=O)cc1` [Compound 92], in assay [1] (setting [3]), the remaining activity at 30 µM was 41%. For the same compound, in assay [2], half-maximal inhibition (IC50) required 5.6 µM.

In the case of `CC(=O)c1ccc(Sc2ccc(C)cc2)c(C=C2SC(=O)NC2=O)c1` [Compound 97], the remaining activity at 30 µM in assay [1] (setting [3]) came to 41%. Also, half-maximal inhibition in assay [2] (IC50) was put at 5.6 µM.

In the case of `Cc1ccc([S+]([O-])c2ccc(C(F)(F)F)cc2C=C2SC(=O)NC2=O)cc1` (stereo not drawn) [Compound 113], in assay [1] (concentration 30 μM), the “Residual Enzyme Activity (%)” value amounted to 37%. Moreover, the “residual activity” value in assay [2] is reported as “(68%)”.

Take `O=C1NC(=O)C(=Cc2cc([N+](=O)[O-])ccc2[S+]([O-])c2ccncc2)S1` (stereo not drawn) [Compound 120]: in assay [1] (concentration 10 μM), the “Residual Enzyme Activity (%)” value is 40%. In assay [2], this compound registered an IC50 of 9.3 µM.

With `CCc1ccc([S+]([O-])c2ccc([N+](=O)[O-])cc2/C=C2\SC(=O)NC2=O)cc1` (stereo not drawn) [Compound 133], the remaining activity at 10 µM in assay [1] (setting [4]) was 11%. Moreover, the IC50 in assay [2] was found to be 9.1 µM.

Take `O=C1NC(=O)C(=Cc2cc([N+](=O)[O-])ccc2[S+]([O-])c2cccc(Cl)c2)S1` (stereo not drawn) [Compound 134]: the “Residual Enzyme Activity (%)” value in assay [1] (concentration 10 μM) came out at 4%. In addition, the “residual activity” value in assay [2] was “(59%)”.

For `O=C1NC(=O)/C(=C/c2cc([N+](=O)[O-])ccc2[S+]([O-])c2ccc(Cl)c(Cl)c2)S1` (stereo not drawn) [Compound 135], the remaining activity at 3 µM in assay [1] (concentration 3 μM, read-out: Residual Enzyme Activity (%)) was 14%. In assay [2], this compound had an IC50 of 4.5 µM.

For `Cc1ccc([S+]([O-])c2ccc(C=C3SC(=O)NC3=O)cc2Cl)cc1` (stereo not drawn) [Compound 141], in assay [1] (concentration 30 μM), the “Residual Enzyme Activity (%)” value amounted to 26%. Also, in assay [2], the “residual activity” value was “(64%)”.

`Cc1ccc([S+]([O-])c2ccc(C=C3SC(=O)NC3=O)cc2Br)cc1` (stereo not drawn) [Compound 143]: the “Residual Enzyme Activity (%)” value in assay [1] (concentration 30 μM) turned out to be 36%. In addition, in assay [2], the “residual activity” value was “(62%)”.
